Data published in patent US8030354B2, “Substituted biphenyl GPR40 modulators” (Amgen Inc., priority 2007, dated 2011).

Each compound was assayed against GPR40 (Homo sapiens, UniProt O14842) (assay: Cell-based aequorin assay (CHO cells stably expressing GPR40 and aequorin)). Details: activation of human GPR40, CHO cells, 0.01% HSA.
Set-up: expressed in transfected cells; host or cells: CHO cells stably transfected with GPR40 and aequorin
Summary of the method: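 CHO cells stably co-expressing GPR40 and aequorin, loaded with coelenterazine (1 ug/mL, 2 h, room temperature) in H/HBSS with 20 mM Hepes and 0.01% fatty acid-free HSA. Serially diluted compounds added; luminescence recorded over 20 s. EC50 from dose-response of maximum relative light units.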

Chain of GPR40 (O14842 whole entry): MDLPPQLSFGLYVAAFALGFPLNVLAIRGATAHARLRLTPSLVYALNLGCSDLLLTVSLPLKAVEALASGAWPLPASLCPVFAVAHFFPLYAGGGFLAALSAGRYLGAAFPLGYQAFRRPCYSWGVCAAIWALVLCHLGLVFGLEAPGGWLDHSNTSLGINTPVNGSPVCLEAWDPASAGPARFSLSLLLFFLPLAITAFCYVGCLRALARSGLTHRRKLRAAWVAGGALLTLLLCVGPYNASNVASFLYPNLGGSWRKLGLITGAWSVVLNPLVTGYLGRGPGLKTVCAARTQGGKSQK

| Structure (SMILES) | EC50 |
| --- | --- |
| CCC[C@H](CC(=O)O)c1cccc(OCc2ccc(-c3cc(OC)ccc3F)c(COCC)c2)c1 (single isomer, unassigned) [Example 67.23, (3R)-3-(3-(((2-((Ethyloxy)methyl)-2′-fluoro-5′-(methyloxy)-1,1′-biphenyl-4-yl)methyl)oxy)phenyl)hexanoic acid or (3S)-3-(3-(((2-((ethyloxy)methyl)-2′-fluoro-5′-(methyloxy)-1,1′-biphenyl-4-yl)methyl)oxy)phenyl)hexanoic acid] | 1000 to 10000 nM |
| C=CC(C)(C)[C@H](O)c1cc(COc2cccc([C@H](CCC)CC(=O)O)c2)ccc1-c1cc(OC)ccc1F (single isomer, unassigned) [Example 67.25, (3R)-3-(3-(((2′-Fluoro-2-((1S)-1-hydroxy-2,2-dimethyl-3-butenyl)-5′-(methyloxy)-1,1′-biphenyl-4-yl)methyl)oxy)phenyl)hexanoic acid or (3R)-3-(3-(((2′-fluoro-2-((1R)-1-hydroxy-2,2-dimethyl-3-butenyl)-5′-(methyloxy)-1,1′-biphenyl-4-yl)methyl)oxy)phenyl)hexanoic acid] | 1000 to 10000 nM |
| CCCC(CC(=O)O)c1cccc(OCc2ccc(-c3cc(OC)ccc3F)c(C(OC)C(C)(C)CC)c2)c1 (single isomer, unassigned) [Example 67.26] | 1000 to 10000 nM |
| CCC[C@H](CC(=O)O)c1cccc(OCc2ccc(-c3cc(OC)ccc3F)c(COCC=C(C)C)c2)c1 (single isomer, unassigned) [Example 67.27, (3R)-3-(3-(((2′-Fluoro-2-(((3-methyl-2-butenyl)oxy)methyl)-5′-(methyloxy)-1,1′-biphenyl-4-yl)methyl)oxy)phenyl)hexanoic acid or (3S)-3-(3-(((2′-fluoro-2-(((3-methyl-2-butenyl)oxy)methyl)-5′-(methyloxy)-1,1′-biphenyl-4-yl)methyl)oxy)phenyl)hexanoic acid] | 1000 to 10000 nM |
| CCCC(CC(=O)O)c1cccc(OCc2ccc(-c3cc(OC)ccc3F)c(CN3CCCC3)c2)c1 (single isomer, unassigned) [Example 67.28, (3R)-3-(3-(((2′-Fluoro-5′-(methyloxy)-2-(1-pyrrolidinylmethyl)-1,1′-biphenyl-4-yl)methyl)oxy)phenyl)hexanoic acid or (3S)-3-(3-(((2′-fluoro-5′-(methyloxy)-2-(1-pyrrolidinylmethyl)-1,1′-biphenyl-4-yl)methyl)oxy)phenyl)hexanoic acid] | 1000 to 10000 nM |
| COc1ccc(F)c(-c2ccc(COc3cccc(C(CCC(F)(F)F)CC(=O)O)c3)cc2C(C)(C)C)c1 (single isomer, unassigned) [Example 68.1, (3R)-3-(3-(((2-(1,1-Dimethylethyl)-2′-fluoro-5′-(methyloxy)-1,1′-biphenyl-4-yl)methyl)oxy)phenyl)-6,6,6-trifluorohexanoic acid or (3S)-3-(3-(((2-(1,1-dimethylethyl)-2′-fluoro-5′-(methyloxy)-1,1′-biphenyl-4-yl)methyl)oxy)phenyl)-6,6,6-trifluorohexanoic acid] | 100 to 1000 nM |
| CCCCOc1cc(COc2cccc(C(CCC(F)(F)F)CC(=O)O)c2)ccc1-c1cc(OC)ccc1F (single isomer, unassigned) [Example 68.2, (3R)-3-(3-(((2-(Butyloxy)-2′-fluoro-5′-(methyloxy)-1,1′-biphenyl-4-yl)methyl)oxy)phenyl)-6,6,6-trifluorohexanoic acid or (3S)-3-(3-(((2-(butyloxy)-2′-fluoro-5′-(methyloxy)-1,1′-biphenyl-4-yl)methyl)oxy)phenyl)-6,6,6-trifluorohexanoic acid] | 1000 to 10000 nM |
| CCCCOc1cc(COc2cccc(C(CC(=O)O)CC3CC3)c2)ccc1-c1cc(OC)ccc1F (single isomer, unassigned) [Example 69.5, (3R)-3-(3-(((2-(Butyloxy)-2′-fluoro-5′-(methyloxy)-1,1′-biphenyl-4-yl)methyl)oxy)phenyl)-4-cyclopropylbutanoic acid or (3S)-3-(3-(((2-(butyloxy)-2′-fluoro-5′-(methyloxy)-1,1′-biphenyl-4-yl)methyl)oxy)phenyl)-4-cyclopropylbutanoic acid] | 100 to 1000 nM |
| COc1ccc(F)c(-c2ccc(COc3cccc(C(CC(=O)O)CC4CC4)c3)cc2C2CCCC2(C)C)c1 (single isomer, unassigned) [Example 69.7] | 100 to 1000 nM |
| COc1cccc(-c2ccc(COc3cccc(C(CC(=O)O)CC4CC4)c3)cc2C2CCCC2(C)C)c1 (single isomer, unassigned) [Example 69.9] | 100 to 1000 nM |
| COc1ccc(F)c(-c2ccc(COc3cccc(C(CC(=O)O)CC4CC4)c3)cc2C(=O)C(C)(C)C)c1 (single isomer, unassigned) [Example 69.20, (3R)-4-Cyclopropyl-3-(3-(((2-(2,2-dimethylpropanoyl)-2′-fluoro-5′-(methyloxy)-1,1′-biphenyl-4-yl)methyl)oxy)phenyl)butanoic acid or (3S)-4-cyclopropyl-3-(3-(((2-(2,2-dimethylpropanoyl)-2′-fluoro-5′-(methyloxy)-1,1′-biphenyl-4-yl)methyl)oxy)phenyl)butanoic acid] | 1000 to 10000 nM |
| COc1ccc(F)c(-c2ccc(COc3cccc([C@@H](CC(=O)O)CC4CC4)c3)cc2S(=O)(=O)C(C)C)c1 (single isomer, unassigned) [Example 69.25, (R)-4-Cyclopropyl-3-{3-[2′-fluoro-5′-methoxy-2-(propane-2-sulfonyl)-biphenyl-4-ylmethoxy]-phenyl}-butyric acid or (S)-4-cyclopropyl-3-{3-[2′-fluoro-5′-methoxy-2-(propane-2-sulfonyl)-biphenyl-4-ylmethoxy]-phenyl}-butyric acid] | 1000 to 10000 nM |
| COc1ccc(F)c(-c2ccc(COc3cccc([C@@H](CC(=O)O)CC4CC4)c3)cc2[S+]([O-])C(C)C)c1 (single isomer, unassigned) [Example 69.26, (R)-4-Cyclopropyl-3-{3-[2′-fluoro-5′-methoxy-2-(propane-2-sulfinyl)-biphenyl-4-ylmethoxy]-phenyl}-butyric acid or (S)-4-cyclopropyl-3-{3-[2′-fluoro-5′-methoxy-2-(propane-2-sulfinyl)-biphenyl-4-ylmethoxy]-phenyl}-butyric acid] | 1000 to 10000 nM |
| COc1ccc(F)c(-c2ccc(COc3cccc(C(CC(=O)O)CC4CC4)c3)cc2C2OCCCC2(C)C)c1 (single isomer, unassigned) [Example 69.27, (R)-4-Cyclopropyl-3-{3-[2-(3,3-dimethyl-tetrahydro-pyran-2-yl)-2′-fluoro-5′-methoxy-biphenyl-4-ylmethoxy]-phenyl}-butyric acid or (S)-4-cyclopropyl-3-{3-[2-(3,3-dimethyl-tetrahydro-pyran-2-yl)-2′-fluoro-5′-methoxy-biphenyl-4-ylmethoxy]-phenyl}-butyric acid] | 100 to 1000 nM |
| CCOCc1cc(COc2cccc(C(CC(=O)O)CC3CC3)c2)ccc1-c1cc(OC)ccc1F (single isomer, unassigned) [Example 69.37, (3R)-4-Cyclopropyl-3-(3-(((2-((ethyloxy)methyl)-2′-fluoro-5′-(methyloxy)-1,1′-biphenyl-4-yl)methyl)oxy)phenyl)butanoic acid or (3S)-4-cyclopropyl-3-(3-(((2-((ethyloxy)methyl)-2′-fluoro-5′-(methyloxy)-1,1′-biphenyl-4-yl)methyl)oxy)phenyl)butanoic acid] | 1000 to 10000 nM |
| C=CC(C)(C)[C@H](OC)c1cc(COc2cccc([C@@H](CC(=O)O)CC3CC3)c2)ccc1-c1cc(OC)ccc1F (single isomer, unassigned) [Example 69.39] | 1000 to 10000 nM |
